ChEMBL document CHEMBL1201862, “PubChem BioAssay data set” (2004)
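Method: 48-hour compound exposure of cells in 96-well plates, five concentrations, linear interpolation of endpoints. GI50 = concentration required for 50% inhibition of growth.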 Calls of active or inactive are those of the source. Cut-off read from the data, not from the text of the source: active = GI50 up to about 1.1 µM and inactive = higher.

Key:
Assay in all cases: inhibition of tumour cell growth, NCI panel, 48 h
[1] = test system: 786-0
[2] = test system: A498
[3] = test system: A549
[4] = test system: ACHN
[5] = test system: CCRF-CEM
[6] = test system: COLO 205
[7] = test system: DLD-1
[8] = test system: DMS-114
[9] = test system: DMS-273
[10] = test system: EKVX
[11] = test system: HCC 2998
[12] = test system: HCT-116
[13] = test system: HCT-15
[14] = test system: HL-60
[15] = test system: HOP-18
[16] = test system: HOP-62
[17] = test system: HT-29
[18] = test system: IGROV-1
[19] = test system: K562
[20] = test system: KM-20L2
[21] = test system: KM12
[22] = test system: LOX IMVI
[23] = test system: LXFL 529
[24] = test system: M14
[25] = test system: M19-MEL
[26] = test system: MOLT-4
[27] = test system: Malme-3M
[28] = test system: NCI-H226
[29] = test system: NCI-H23
[30] = test system: NCI-H460
[31] = test system: NCI-H522
[32] = test system: OVCAR-3
[33] = test system: OVCAR-5
[34] = test system: OVCAR-8
[35] = test system: RPMI-8226
[36] = test system: RXF 393
[37] = test system: SF-295
[38] = test system: SF-539
[39] = test system: SK-MEL-28
[40] = test system: SK-MEL-2
[41] = test system: SK-MEL-5
[42] = test system: SK-OV-3
[43] = test system: SN12C
[44] = test system: SNB-19
[45] = test system: SNB-75
[46] = test system: SNB-78
[47] = test system: SR
[48] = test system: SW-620
[49] = test system: TK-10
[50] = test system: U-251
[51] = test system: UACC-257
[52] = test system: UACC-62
[53] = test system: UO-31
[54] = test system: XF498

Measured: GI50

C1CNCCNCCNCCN1
active: [54] 0.14 µM
inactive: [1] > 100 µM | [2] > 100 µM | [3] > 100 µM | [4] > 100 µM | [5] > 100 µM | [6] 37.5 µM | [7] 41.3 µM | [8] > 100 µM | [9] 53.8 µM | [10] > 100 µM | [11] 64.3 µM | [12] 50.1 µM | [14] 62.7 µM | [15] > 100 µM | [16] > 100 µM | [17] 63.5 µM | [18] > 100 µM | [19] 70.5 µM | [20] 82.6 µM | [21] > 100 µM | [22] > 100 µM | [23] > 100 µM | [24] > 100 µM | [25] > 100 µM | [26] 64.6 µM | [27] > 100 µM | [28] > 100 µM | [29] > 100 µM | [30] 35.8 µM | [31] > 100 µM | [32] 72.6 µM | [33] > 100 µM | [34] > 100 µM | [35] > 100 µM | [36] > 100 µM | [37] > 100 µM | [38] > 100 µM | [39] > 100 µM | [40] > 100 µM | [41] > 100 µM | [42] > 100 µM | [43] > 100 µM | [44] > 100 µM | [45] > 100 µM | [46] > 100 µM | [47] 51.6 µM | [48] 52.2 µM | [49] > 100 µM | [50] 24 µM | [51] > 100 µM | [52] > 100 µM | [53] > 100 µM
> 10 µM: [13]
